According to paper PMC11764585, “Hybridization Design and High-Throughput Screening of Peptides with Immunomodulatory and Antioxidant Activities” (International Journal of Molecular Sciences, 2025):

How the values were obtained:
TNF-α = experiment: ELISA of TNF-α in RAW 264.7 culture supernatant; assay type: cell-based, mouse; conditions: RAW 264.7 cells, peptide 100 μg/mL, 24 h, vs CON group
Description: (§1) RAW 264.7 macrophages (2 × 10^6 cells/well) were seeded in 6-well plates and incubated for 12 h. Hybrid peptides and parent peptides were added to achieve a final concentration of 100 μg/mL, LPS (100 ng/mL) as a positive control. After 24 h of incubation, the culture supernatants were collected, and the levels of TNF-α, IL-6, and IL-1β were measured using ELISA kits according to the manufacturer’s instructions (Solarbio, Beijing, China).

IL-1β = experiment: ELISA of IL-1β in RAW 264.7 culture supernatant; assay type: cell-based, mouse; conditions: RAW 264.7 cells, peptide 100 μg/mL, 24 h, vs CON group
Description: as §1

IL-6 = experiment: ELISA of IL-6 in RAW 264.7 culture supernatant; assay type: cell-based, mouse; conditions: RAW 264.7 cells, peptide 100 μg/mL, 24 h, vs CON group
Description: as §1

RAW-Lucia NF-κB cells = experiment: NF-κB luciferase reporter assay; assay type: cell-based, mouse; conditions: peptide 100 μg/mL, 12 h, luminescence, p < 0.05 vs control group
Excerpt: (§2) The ARE sequences and NF-κB element sequences are referenced in [52, 54]. Based on the sequence information, plasmids pCD-ARE-puro and pCDH-NF-κB-puro were constructed. These plasmids, along with pMD2.G and psPAX2, were transfected into HEK293T cells using a three-plasmid virus packaging system to produce viruses. The virus supernatants were then used to infect IPEC-J2 or RAW 264.7 cells, followed by positive clone screening with Puromycin. For the testing of stable cell lines, tBHQ was used for IPEC-J2-Lucia ARE cells and LPS was used for RAW-Lucia NF-κB cells.
(§3) Candidate peptides (100 μg/mL) were incubated with RAW-Lucia NF-κB or IPEC-J2-Lucia ARE cells (3 × 10⁵ cells/well) in 96-well plates for 12 h. LPS (100 ng/mL) was used as the positive control for the RAW-Lucia NF-κB cells and tBHQ (10 μM) was used as the positive control for the IPEC-J2-Lucia ARE cells. Subsequently, 15 μL of the culture supernatant was mixed with 50 μL of detection buffer (50 mM HEPES, pH 7.0; 50 mM NaCl; 0.05% CHAPS; 10 mM EDTA; and 1 μM coelenterazine). Luminescence was measured using a multimode plate reader, and relative luminescence units (RLUs) were calculated.

IPEC-J2-Lucia ARE cells = experiment: ARE luciferase reporter assay; assay type: cell-based; conditions: peptide 100 μg/mL, 12 h, luminescence
Excerpt: as §2, §3

HepG2 cells = experiment: H2O2-induced oxidative damage model in HepG2 cells; assay type: cell-based; conditions: peptide 100 ng/mL pre-incubation 2 h, then H2O2 650 μM 6 h; for Protective effect against H2O2-induced oxidative damage (result in words): CCK-8 viability, vs model group
Description: HepG2 cells (2 × 10^5 cells/well) were seeded into 96-well plates and incubated overnight at 37 °C with 5% CO2. The supernatant was removed, and hybrid or parent peptides were added at a final concentration of 100 ng/mL for 2 h. H2O2 (Sigma-Aldrich, St. louis, MO, USA) was then added to a final concentration of 650 μM and the cells were further incubated for 6 h. Cell viability was assessed using the CCK-8 assay.

EVVEEAYGPSSYGYG [TbY, hybrid peptide of parent peptides Tb and Y]
Expression of TNF-α (result in words) (TNF-α): significantly upregulated
Expression of IL-1β (result in words) (IL-1β): significantly upregulated
Expression of IL-6 (result in words) (IL-6): significantly upregulated
Activation of the NF-κB signaling pathway (result in words) (RAW-Lucia NF-κB cells): significantly activated

KEKKEVVEYGPSSYGYG [TaY, hybrid peptide of parent peptides Ta and Y]
Expression of TNF-α (result in words) (TNF-α): significantly upregulated
Stimulation of the ARE pathway (result in words) (IPEC-J2-Lucia ARE cells): stimulate the ARE pathway
Protective effect against H2O2-induced oxidative damage (result in words) (HepG2 cells): significant differences compared to the model group
Expression of IL-1β (result in words) (IL-1β): significantly upregulated
Expression of IL-6 (result in words) (IL-6): significantly upregulated

QLNWDRKDVY [MP, hybrid peptide of parent peptides M and P]
Expression of TNF-α (result in words) (TNF-α): significantly upregulated
Stimulation of the ARE pathway (result in words) (IPEC-J2-Lucia ARE cells): stimulate the ARE pathway
Protective effect against H2O2-induced oxidative damage (result in words) (HepG2 cells): significant differences compared to the model group
Expression of IL-1β (result in words) (IL-1β): significantly upregulated
Expression of IL-6 (result in words) (IL-6): significantly upregulated

RGPPPRKDVY [RP, hybrid peptide of parent peptides R and P]
Expression of TNF-α (result in words) (TNF-α): significantly upregulated
Expression of IL-1β (result in words) (IL-1β): significantly upregulated
Expression of IL-6 (result in words) (IL-6): significantly upregulated
Activation of the NF-κB signaling pathway (result in words) (RAW-Lucia NF-κB cells): significantly activated

RKDVYRGPPP [PR, hybrid peptide of parent peptides P and R]
Expression of TNF-α (result in words) (TNF-α): significantly upregulated
Expression of IL-1β (result in words) (IL-1β): significantly upregulated
Expression of IL-6 (result in words) (IL-6): significantly upregulated
Activation of the NF-κB signaling pathway (result in words) (RAW-Lucia NF-κB cells): significantly activated

RKDVYYGPSSYGYG [PY, hybrid peptide of parent peptides P and Y]
Stimulation of the ARE pathway (result in words) (IPEC-J2-Lucia ARE cells): stimulate the ARE pathway
Protective effect against H2O2-induced oxidative damage (result in words) (HepG2 cells): significant differences compared to the model group

YGPSSYGYGEVVEEA [YTb, hybrid peptide of parent peptides Y and Tb]
Expression of IL-1β (result in words) (IL-1β): particularly upregulated
Expression of IL-6 (result in words) (IL-6): particularly upregulated

YGPSSYGYGKEKKEVVE [YTa, hybrid peptide of parent peptides Y and Ta]
Increase of HepG2 cell viability compared to the H2O2-treated group (HepG2 cells; CCK-8): 12%
Protective effect against H2O2-induced oxidative damage (result in words) (HepG2 cells): significant differences compared to the model group
Expression of IL-6 (result in words) (IL-6): significantly increased
Activation of the NF-κB signaling pathway (result in words) (RAW-Lucia NF-κB cells): significantly activated

YGPSSYGYGRKDVY [YP, hybrid peptide of parent peptides Y and P]
Stimulation of the ARE pathway (result in words) (IPEC-J2-Lucia ARE cells): stimulate the ARE pathway
